# Assay results: patent US8575158B2, “1-phenyl-substituted heterocyclyl derivatives and their use as prostaglandin D2 receptor modulators” (Actelion Pharmaceuticals Ltd., priority 2010, dated 2013)
# pIC50: −log10 of the molar value.
# Biological target: T1, hCRTH2 receptor (Homo sapiens, UniProt Q9Y5Y4)
# T1 construct: expressed in transfected cells; host or cells: HEK293
# T1 sequence (Q9Y5Y4 1-395): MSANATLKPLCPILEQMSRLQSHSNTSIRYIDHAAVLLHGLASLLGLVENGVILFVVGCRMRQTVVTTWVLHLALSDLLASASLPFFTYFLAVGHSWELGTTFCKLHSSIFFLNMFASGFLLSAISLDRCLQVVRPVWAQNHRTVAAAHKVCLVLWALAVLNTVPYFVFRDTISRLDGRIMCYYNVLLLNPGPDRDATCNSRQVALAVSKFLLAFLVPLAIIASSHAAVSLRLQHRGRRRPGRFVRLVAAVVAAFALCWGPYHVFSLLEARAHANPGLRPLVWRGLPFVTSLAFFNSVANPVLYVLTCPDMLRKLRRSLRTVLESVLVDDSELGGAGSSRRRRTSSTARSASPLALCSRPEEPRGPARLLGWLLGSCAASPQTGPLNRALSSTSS
# Assay: Radioligand displacement assay (3H-PGD2) on hCRTH2 receptor membranes
# Assay type: binding
# Conditions: antagonistic activity, 3H-PGD2 radioligand displacement, HEK293-hCRTH2 membranes
row,pIC50,SMILES
1,8.68,"Cc1cnn(COC(=O)N2CCc3ccccc3[C@H]2c2cc(Cl)ccc2OCC(=O)O)c1 [Example 292, (S)-1-(2-Carboxymethoxy-5-chloro-phenyl)-3,4-dihydro-1H-isoquinoline-2-carboxylic acid 4-methyl-pyrazol-1-ylmethyl ester]"
2,7.01,Cc1nc2ccccc2n1CCOC(=O)N1CCc2ccccc2[C@H]1c1cc(Cl)ccc1OCC(=O)O [Example 293]
3,8.71,"O=C(O)COc1ccc(Cl)cc1[C@@H]1c2ccccc2CCN1C(=O)OCc1nc2ccccc2s1 [Example 294, (S)-1-(2-Carboxymethoxy-5-chloro-phenyl)-3,4-dihydro-1H-isoquinoline-2-carboxylic acid benzothiazol-2-ylmethyl ester]"
4,8.13,"O=C(O)COc1ccc(Cl)cc1[C@@H]1c2ccccc2CCN1C(=O)OCc1nc2ccccc2o1 [Example 295, (S)-1-(2-Carboxymethoxy-5-chloro-phenyl)-3,4-dihydro-1H-isoquinoline-2-carboxylic acid benzooxazol-2-ylmethyl ester]"
5,8.76,"Cn1nc(COC(=O)N2CCc3ccccc3[C@H]2c2cc(Cl)ccc2OCC(=O)O)c2ccccc21 [Example 296, (S)-1-(2-Carboxymethoxy-5-chloro-phenyl)-3,4-dihydro-1H-isoquinoline-2-carboxylic acid 1-methyl-1H-indazol-3-ylmethyl ester]"
6,8.97,"O=C(O)COc1ccc(Cl)cc1[C@@H]1c2ccccc2CCN1C(=O)OCn1ncc2ccccc21 [Example 297, (S)-1-(2-Carboxymethoxy-5-chloro-phenyl)-3,4-dihydro-1H-isoquinoline-2-carboxylic acid indazol-1-ylmethyl ester]"
7,8.60,"O=C(O)COc1ccc(Cl)cc1[C@@H]1c2ccccc2CCN1C(=O)OCc1noc2ccccc12 [Example 298, (S)-1-(2-Carboxymethoxy-5-chloro-phenyl)-3,4-dihydro-1H-isoquinoline-2-carboxylic acid benzo[d]isoxazol-3-ylmethyl ester]"
8,8.17,"O=C(O)COc1ccc(Cl)cc1[C@@H]1c2ccc(F)c(F)c2CCN1C(=O)OCc1nccs1 [Example 299, (S)-1-(2-Carboxymethoxy-5-chloro-phenyl)-5,6-difluoro-3,4-dihydro-1H-isoquinoline-2-carboxylic acid thiazol-2-ylmethyl ester]"
9,8.19,"Cc1ncsc1CCOC(=O)N1CCc2c(ccc(F)c2F)[C@H]1c1cc(Cl)ccc1OCC(=O)O [Example 300, (S)-1-(2-Carboxymethoxy-5-chloro-phenyl)-5,6-difluoro-3,4-dihydro-1H-isoquinoline-2-carboxylic acid 2-(4-methyl-thiazol-5-yl)-ethyl ester]"
10,8.34,"Cc1cnc(COC(=O)N2CCc3c(ccc(F)c3F)[C@H]2c2cc(Cl)ccc2OCC(=O)O)s1 [Example 301, (S)-1-(2-Carboxymethoxy-5-chloro-phenyl)-5,6-difluoro-3,4-dihydro-1H-isoquinoline-2-carboxylic acid 5-methyl-thiazol-2-ylmethyl ester]"
11,8.24,"Cc1csc(COC(=O)N2CCc3c(ccc(F)c3F)[C@H]2c2cc(Cl)ccc2OCC(=O)O)n1 [Example 302, (S)-1-(2-Carboxymethoxy-5-chloro-phenyl)-5,6-difluoro-3,4-dihydro-1H-isoquinoline-2-carboxylic acid 4-methyl-thiazol-2-ylmethyl ester]"
12,8.30,"Cc1ncc(COC(=O)N2CCc3c(ccc(F)c3F)[C@H]2c2cc(Cl)ccc2OCC(=O)O)s1 [Example 303, (S)-1-(2-Carboxymethoxy-5-chloro-phenyl)-5,6-difluoro-3,4-dihydro-1H-isoquinoline-2-carboxylic acid 2-methyl-thiazol-5-ylmethyl ester]"
13,8.27,"Cc1nc(COC(=O)N2CCc3c(ccc(F)c3F)[C@H]2c2cc(Cl)ccc2OCC(=O)O)cs1 [Example 304, (S)-1-(2-Carboxymethoxy-5-chloro-phenyl)-5,6-difluoro-3,4-dihydro-1H-isoquinoline-2-carboxylic acid 2-methyl-thiazol-4-ylmethyl ester]"
14,8.67,"Cc1cc(COC(=O)N2CCc3c(ccc(F)c3F)[C@H]2c2cc(Cl)ccc2OCC(=O)O)on1 [Example 305, (S)-1-(2-Carboxymethoxy-5-chloro-phenyl)-5,6-difluoro-3,4-dihydro-1H-isoquinoline-2-carboxylic acid 3-methyl-isoxazol-5-ylmethyl ester]"
15,8.51,"Cc1conc1COC(=O)N1CCc2c(ccc(F)c2F)[C@H]1c1cc(Cl)ccc1OCC(=O)O [Example 306, (S)-1-(2-Carboxymethoxy-5-chloro-phenyl)-5,6-difluoro-3,4-dihydro-1H-isoquinoline-2-carboxylic acid 4-methyl-isoxazol-3-ylmethyl ester]"
16,8.48,"Cc1noc(C)c1COC(=O)N1CCc2c(ccc(F)c2F)[C@H]1c1cc(Cl)ccc1OCC(=O)O [Example 307, (S)-1-(2-Carboxymethoxy-5-chloro-phenyl)-5,6-difluoro-3,4-dihydro-1H-isoquinoline-2-carboxylic acid 3,5-dimethyl-isoxazol-4-ylmethyl ester]"
17,8.77,"O=C(O)COc1ccc(Cl)cc1[C@@H]1c2ccc(F)c(F)c2CCN1C(=O)OCc1cnccn1 [Example 308, (S)-1-(2-Carboxymethoxy-5-chloro-phenyl)-5,6-difluoro-3,4-dihydro-1H-isoquinoline-2-carboxylic acid pyrazin-2-ylmethyl ester]"
18,8.32,"O=C(O)COc1ccc(Cl)cc1[C@@H]1c2ccc(F)c(F)c2CCN1C(=O)OCc1ccncn1 [Example 309, (S)-1-(2-Carboxymethoxy-5-chloro-phenyl)-5,6-difluoro-3,4-dihydro-1H-isoquinoline-2-carboxylic acid pyrimidin-4-ylmethyl ester]"
19,8.29,"O=C(O)COc1ccc(Cl)cc1[C@@H]1c2ccc(F)c(F)c2CCN1C(=O)OCCc1ccccc1 [Example 310, (S)-1-(2-Carboxymethoxy-5-chloro-phenyl)-5,6-difluoro-3,4-dihydro-1H-isoquinoline-2-carboxylic acid phenethyl ester]"
20,7.96,"O=C(O)COc1ccc(Cl)cc1[C@@H]1c2ccc(F)c(F)c2CCN1C(=O)OCCc1cccc(F)c1 [Example 311, (S)-1-(2-Carboxymethoxy-5-chloro-phenyl)-5,6-difluoro-3,4-dihydro-1H-isoquinoline-2-carboxylic acid 2-(3-fluoro-phenyl)-ethyl ester]"
21,8.33,"Cn1nccc1COC(=O)N1CCc2c(ccc(F)c2F)[C@H]1c1cc(Cl)ccc1OCC(=O)O [Example 312, (S)-1-(2-Carboxymethoxy-5-chloro-phenyl)-5,6-difluoro-3,4-dihydro-1H-isoquinoline-2-carboxylic acid 2-methyl-2H-pyrazol-3-ylmethyl ester]"
22,8.63,"Cc1cc(COC(=O)N2CCc3c(ccc(F)c3F)[C@H]2c2cc(Cl)ccc2OCC(=O)O)n(C)n1 [Example 313, (S)-1-(2-Carboxymethoxy-5-chloro-phenyl)-5,6-difluoro-3,4-dihydro-1H-isoquinoline-2-carboxylic acid 2,5-dimethyl-2H-pyrazol-3-ylmethyl ester]"
23,8.01,"CCn1nc(C)cc1CCOC(=O)N1CCc2c(ccc(F)c2F)[C@H]1c1cc(Cl)ccc1OCC(=O)O [Example 314, (S)-1-(2-Carboxymethoxy-5-chloro-phenyl)-5,6-difluoro-3,4-dihydro-1H-isoquinoline-2-carboxylic acid 2-(2-ethyl-5-methyl-2H-pyrazol-3-yl)-ethyl ester]"
24,8.55,"Cn1cncc1COC(=O)N1CCc2c(ccc(F)c2F)[C@H]1c1cc(Cl)ccc1OCC(=O)O [Example 315, (S)-1-(2-Carboxymethoxy-5-chloro-phenyl)-5,6-difluoro-3,4-dihydro-1H-isoquinoline-2-carboxylic acid 3-methyl-3H-imidazol-4-ylmethyl ester]"
25,8.29,"Cc1cc(C)n(CCOC(=O)N2CCc3c(ccc(F)c3F)[C@H]2c2cc(Cl)ccc2OCC(=O)O)n1 [Example 316, (S)-1-(2-Carboxymethoxy-5-chloro-phenyl)-5,6-difluoro-3,4-dihydro-1H-isoquinoline-2-carboxylic acid 2-(3,5-dimethyl-pyrazol-1-yl)-ethyl ester]"
26,7.83,"Cc1cnn(COC(=O)N2CCc3c(ccc(F)c3F)[C@H]2c2cc(Cl)ccc2OCC(=O)O)c1 [Example 317, (S)-1-(2-Carboxymethoxy-5-chloro-phenyl)-5,6-difluoro-3,4-dihydro-1H-isoquinoline-2-carboxylic acid 4-methyl-pyrazol-1-ylmethyl ester]"
27,6.86,Cc1nc2ccccc2n1CCOC(=O)N1CCc2c(ccc(F)c2F)[C@H]1c1cc(Cl)ccc1OCC(=O)O [Example 318]
28,8.84,"O=C(O)COc1ccc(Cl)cc1[C@@H]1c2ccc(F)c(F)c2CCN1C(=O)OCc1nc2ccccc2s1 [Example 319, (S)-1-(2-Carboxymethoxy-5-chloro-phenyl)-5,6-difluoro-3,4-dihydro-1H-isoquinoline-2-carboxylic acid benzothiazol-2-ylmethyl ester]"
29,9.28,"O=C(O)COc1ccc(Cl)cc1[C@@H]1c2ccc(F)c(F)c2CCN1C(=O)OCc1nc2ccccc2o1 [Example 320, (S)-1-(2-Carboxymethoxy-5-chloro-phenyl)-5,6-difluoro-3,4-dihydro-1H-isoquinoline-2-carboxylic acid benzooxazol-2-ylmethyl ester]"
